# From patent US8952024B2, “Herbicidal pyrimidone derivatives” (E I du Pont de Nemours and Company, priority 2009, dated 2015)
# What was measured:
# Format in all cases: in vivo
# [1] = tested on: goosegrass (Eleusine indica); experiment: Test B pre-/postemergence plant response; conditions: Preemergence, 62 g ai/ha; scale 0 to 100, 0 no effect, 100 complete control
# [2] = tested on: winter barley (Hordeum vulgare); experiment: Test B postemergence plant response; conditions: Postemergence
# How it was run: (§1)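 Plants grown in peat/vermiculite medium were sprayed postemergence at 2–18 cm height (1- to 4-leaf stage). After 13–15 days in the greenhouse, response was rated visually against untreated controls on a 0–100 scale (0 no effect, 100 complete control).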
# [3] = tested on: windgrass (Apera spica-venti); experiment: Test B postemergence plant response; conditions: Postemergence; for Plant response rating, Windgrass: scale 0 (no effect) to 100 (complete control)
# How it was run: as §1
# [4] = tested on: canarygrass (Phalaris minor); experiment: Test B postemergence plant response; conditions: Postemergence
# How it was run: as §1
# [5] = tested on: chickweed (Stellaria media); experiment: Test B postemergence plant response; conditions: Postemergence
# How it was run: as §1
# [6] = tested on: sunflower (common oilseed sunflower, Helianthus annuus); experiment: Test B pre-/postemergence plant response; conditions: Preemergence
# How it was run: (§2)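 Compound in solvent + surfactant applied pre-em (loam/sand) or post-em (plants 2–18 cm, peat medium); greenhouse hold 13–15 days; visual 0–100 control score.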
# [7] = tested on: pigweed (Amaranthus retroflexus); experiment: Test B pre-/postemergence plant response
# How it was run: as §2
# [8] = tested on: lambsquarters (Chenopodium album); experiment: Test B pre-/postemergence plant response
# How it was run: as §2
# [9] = tested on: Italian ryegrass (Lolium multiflorum); experiment: Test B pre-/postemergence plant response
# How it was run: as §2
# [10] = tested on: bermudagrass (Cynodon dactylon); experiment: Test B pre-/postemergence plant response
# How it was run: as §2
# [11] = tested on: wheat (Triticum aestivum); experiment: Test B pre-/postemergence plant response
# How it was run: as §2
# [12] = tested on: nightshade (eastern black nightshade, Solanum ptycanthum); experiment: Test B pre-/postemergence plant response; conditions: Preemergence
# How it was run: as §2
# [13] = tested on: galium (catchweed bedstraw, Galium aparine); experiment: Test B pre-/postemergence plant response; conditions: Preemergence
# How it was run: as §2
# [14] = tested on: ragweed (common ragweed, Ambrosia elatior); experiment: Test B pre-/postemergence plant response
# How it was run: as §2
# [15] = 31 g ai/ha, scale 0 to 100 (0 no effect, 100 complete control)
# [16] = 62 g ai/ha, scale 0 (no effect) to 100 (complete control), 13 to 15 days
# [17] = 125 g ai/ha, visual rating after 13 to 15 days, scale 0 (no effect) to 100 (complete control)
# [18] = 62 g ai/ha, scale 0 to 100, 0 no effect, 100 complete control
# [19] = 250 g ai/ha, Preemergence, 0 to 100 scale
# [20] = Postemergence, 62 g ai/ha, scale 0 (no effect) to 100 (complete control), 13 to 15 days
# [21] = Postemergence, 125 g ai/ha, visual rating after 13 to 15 days, scale 0 (no effect) to 100 (complete control)
# [22] = Postemergence, 250 g ai/ha, scale 0 to 100
# [23] = Preemergence, 31 g ai/ha, scale 0 to 100 (0 no effect, 100 complete control)
# [24] = Preemergence, 62 g ai/ha, scale 0 to 100, 0 no effect, 100 complete control
# [25] = Preemergence, 125 g ai/ha, 0 to 100 scale
smiles,measurement,setting,value
Cc1ccc(C)c(-n2c(-c3ccccc3)ncc(C(=O)C3=C(O)CCCC3=O)c2=O)c1 [Compound 29],"Plant response rating, Goosegrass",[1],100
same,"Plant response rating, Barley",[2]; [15],0
same,"Plant response rating, Barley",[2]; [16],0
same,"Plant response rating, Barley",[2]; [17],0
same,Barley plant response rating,"[2]; 250 g ai/ha, scale 0 to 100",0
same,"Plant response rating, Windgrass","[3]; 62 g ai/ha, 13 to 15 days",10
same,"Plant response rating, Windgrass","[3]; 125 g ai/ha, visual rating after 13 to 15 days",30
same,Windgrass plant response rating,"[3]; 250 g ai/ha, scale 0 to 100",50
same,"Plant response rating, Canarygrass",[4]; [15],10
same,"Plant response rating, Canarygrass",[4]; [16],20
same,"Plant response rating, Canarygrass",[4]; [17],40
same,Canarygrass plant response rating,"[4]; 250 g ai/ha, scale 0 to 100",40
same,"Plant response rating, Chickweed",[5]; [15],50
same,"Plant response rating, Chickweed",[5]; [16],50
same,"Plant response rating, Chickweed",[5]; [17],50
same,Chickweed plant response rating,"[5]; 250 g ai/ha, scale 0 to 100",85
same,"Plant response rating, Sunflower","[6]; 250 g ai/ha, 0 to 100 scale",100
same,"Plant response rating, Sunflower",[6]; [15],75
same,"Plant response rating, Sunflower",[6]; [18],85
same,Sunflower plant response rating,"[6]; 125 g ai/ha, 0 to 100 scale",90
same,"Plant response rating, Pigweed",[7]; [19],100
same,"Plant response rating, Pigweed",[7]; [20],65
same,"Plant response rating, Pigweed",[7]; [21],80
same,Pigweed plant response rating,[7]; [22],85
same,"Plant response rating, Pigweed",[7]; [23],100
same,"Plant response rating, Pigweed",[7]; [24],100
same,Pigweed plant response rating,[7]; [25],100
same,"Plant response rating, Lambsquarters",[8]; [19],100
same,"Plant response rating, Lambsquarters",[8]; [20],85
same,"Plant response rating, Lambsquarters",[8]; [21],90
same,Lambsquarters plant response rating,[8]; [22],98
same,"Plant response rating, Lambsquarters",[8]; [23],100
same,"Plant response rating, Lambsquarters",[8]; [24],100
same,Lambsquarters plant response rating,[8]; [25],100
same,"Plant response rating, Ryegrass, Italian",[9]; [19],40
same,"Plant response rating, Ryegrass, Italian",[9]; [20],20
same,"Plant response rating, Ryegrass, Italian",[9]; [21],40
same,"Ryegrass, Italian plant response rating",[9]; [22],45
same,"Plant response rating, Ryegrass, Italian",[9]; [23],0
same,"Plant response rating, Ryegrass, Italian",[9]; [24],0
same,"Ryegrass, Italian plant response rating",[9]; [25],10
same,"Plant response rating, Bermudagrass",[10]; [19],100
same,"Plant response rating, Bermudagrass","[10]; Postemergence, 31 g ai/ha, scale 0 to 100 (0 no effect, 100 complete control)",85
same,"Plant response rating, Bermudagrass",[10]; [20],90
same,"Plant response rating, Bermudagrass",[10]; [21],90
same,Bermudagrass plant response rating,[10]; [22],100
same,"Plant response rating, Bermudagrass",[10]; [23],98
same,"Plant response rating, Bermudagrass",[10]; [24],100
same,Bermudagrass plant response rating,[10]; [25],100
same,"Plant response rating, Wheat",[11]; [19],0
same,"Plant response rating, Wheat",[11]; [20],0
same,"Plant response rating, Wheat",[11]; [21],10
same,Wheat plant response rating,[11]; [22],40
same,"Plant response rating, Wheat",[11]; [23],0
same,"Plant response rating, Wheat",[11]; [24],0
same,Wheat plant response rating,[11]; [25],0
same,"Plant response rating, Nightshade","[12]; 250 g ai/ha, 0 to 100 scale",100
same,"Plant response rating, Nightshade",[12]; [15],90
same,"Plant response rating, Nightshade",[12]; [18],90
same,Nightshade plant response rating,"[12]; 125 g ai/ha, 0 to 100 scale",100
same,"Plant response rating, Galium","[13]; 250 g ai/ha, 0 to 100 scale",100
same,"Plant response rating, Galium",[13]; [15],50
same,"Plant response rating, Galium",[13]; [18],80
same,Galium plant response rating,"[13]; 125 g ai/ha, 0 to 100 scale",98
same,"Plant response rating, Ragweed",[14]; [19],100
same,"Plant response rating, Ragweed",[14]; [20],85
same,"Plant response rating, Ragweed",[14]; [21],100
same,Ragweed plant response rating,[14]; [22],100
same,"Plant response rating, Ragweed",[14]; [23],80
same,"Plant response rating, Ragweed",[14]; [24],90
same,Ragweed plant response rating,[14]; [25],100
